The values below come from patent EP4650362A1, “NEUROPROTECTIVE PSD-95 POLYPEPTIDE INHIBITOR AND USE THEREOF” (Beijing Tuo Jie Biopharmaceutical Co. Ltd., priority 2023, dated 2024).

The structures appear in SMILES notation. Non-standard residues stand in square brackets, D forms with d. Residues, ends and D or L forms follow the SMILES beside them. hArg = N=C(N)NCCCC[C@H](N)C(=O)O; Tle = CC(C)(C)[C@H](N)C(=O)O; Dab = NCC[C@H](N)C(=O)O; Aib = CC(C)(N)C(=O)O

In one experiment the target is T1, human PSD95-PDZ3 (Homo sapiens, UniProt P78352).
T1 construct: PDZ3 (309-401, Flag-His-Avitag-TEVsite tag); made in house
T1 sequence (P78352 309-401): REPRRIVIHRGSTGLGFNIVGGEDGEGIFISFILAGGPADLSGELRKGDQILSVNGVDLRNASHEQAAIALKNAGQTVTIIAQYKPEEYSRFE
Nature of the experiment: binding ELISA with Biotin-PDZ3. Particulars: plate coated with 2 µM test compound, Biotin-PDZ3 titrated; read-out: EC50 (PDZ3). An excerpt: The three PDZ domains in the PSD95 protein are structurally similar. Binding to the PDZ1 and PDZ2 domains can effectively block PSD95-mediated neuroexcitotoxicity. However, the biological function of binding to the PDZ3 domain is unclear. Therefore, to avoid potential safety concerns, this test example assessed the selectivity of polypeptide compounds for the PDZ2 and PDZ3 domains, aiming to identify polypeptide compounds that specifically bind to the PDZ2 domain. The expression and purification of PSD95-PDZ3 protein were carried out with reference to the steps in 3.1.2. The amino acid sequence of PDZ3 protein: […] Site-specifically biotinylated Biotin-PDZ2 and Biotin-PDZ3 proteins were used for binding ELISA assays. […] After the blocking was complete, the blocking solution was discarded, and the plate was washed three times with PBST buffer. […] After the incubation was complete, the reaction solutions in the microplate were discarded, and the plate was washed three times with PBST. 100 μL of HRP-SA secondary antibody (diluted at 1:2000) was added to each well, and the plate was incubated at 37 °C for 1 h. After the plate was washed three times with PBST, 100 μL of TMB chromogenic substrate was added. […] The absorbance at 450 nm was measured using a SpectraMax M5 microplate reader, and the binding EC50 values of the test compounds to Biotin-PDZ2 or Biotin-PDZ3 were calculated using GraphPad Prism 9. […] The abilities of polypeptide compounds to bind to human PSD95-PDZ2 and human PSD95-PDZ3

For experiment [1], the target named is T2, human PSD95-PDZ2 (Homo sapiens, UniProt P78352).
T2 construct: PDZ2 (155-249, the Flag-His-Avitag-TEVsite tag is italicized); made in house; host or cells: E. coli BL21-DE3 (PET vector)
The experiment can be described thus: binding ELISA with Biotin-PDZ2. As to conditions: for EC50: plate coated with 2 µM test compound, Biotin-PDZ2 titrated, read-out: EC50 (PDZ2); for Specificity for PDZ2 (PDZ3/PDZ2): ratio PDZ3/PDZ2. An excerpt: The three PDZ domains in the PSD95 protein are structurally similar. Binding to the PDZ1 and PDZ2 domains can effectively block PSD95-mediated neuroexcitotoxicity. However, the biological function of binding to the PDZ3 domain is unclear. Therefore, to avoid potential safety concerns, this test example assessed the selectivity of polypeptide compounds for the PDZ2 and PDZ3 domains, aiming to identify polypeptide compounds that specifically bind to the PDZ2 domain. Site-specifically biotinylated Biotin-PDZ2 and Biotin-PDZ3 proteins were used for binding ELISA assays. […] After the blocking was complete, the blocking solution was discarded, and the plate was washed three times with PBST buffer. […] After the incubation was complete, the reaction solutions in the microplate were discarded, and the plate was washed three times with PBST. 100 µL of HRP-SA secondary antibody (diluted at 1:2000) was added to each well, and the plate was incubated at 37 °C for 1 h. After the plate was washed three times with PBST, 100 µL of TMB chromogenic substrate was added. […] The absorbance at 450 nm was measured using a SpectraMax M5 microplate reader, and the binding EC50 values of the test compounds to Biotin-PDZ2 or Biotin-PDZ3 were calculated using GraphPad Prism 9. […] The abilities of polypeptide compounds to bind to human PSD95-PDZ2 and human PSD95-PDZ3
Target sequence in this assay (P78352 155-249): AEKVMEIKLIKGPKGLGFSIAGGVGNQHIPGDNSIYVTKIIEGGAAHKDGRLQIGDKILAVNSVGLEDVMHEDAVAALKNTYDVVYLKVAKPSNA

Experiment [2] addresses T2, human PSD95-PDZ2. Nature of the experiment: competitive ELISA, affinity for human PSD95-PDZ2. The experiment is classed as binding. Particulars: for IC50: competitive ELISA against 0.3 µM Biotin-NA-1, error of this test within three times, read-out: IC50; for rIC50: ratio of the affinity of the polypeptide compound to the affinity of NA-1. An excerpt: The objective of this test example was to determine the affinities of polypeptide compounds for human PSD95-PDZ2 using competitive ELISAs.
The amino acid sequence of PDZ2 protein was designed using human PSD95 (Uniprot Entry: P78352) as a template for PDZ: PDZ2 (155-249, the Flag-His-Avitag-TEVsite tag is italicized and was subsequently used for purification and biotinylation): […]
[…] (SEQ ID NO. 62). The PDZ2 gene was constructed onto a PET expression vector, and induced expression was performed using BL21-DE3 E. coli cells under conditions of 37 °C and 1 mM IPTG 4 h. Then centrifugation was performed at 10,000 g at 4 °C for 10 min, and the cell pellets were collected, resuspended in 1× PBS solution, and then lysed using a homogenizer. The lysate was centrifuged at high speed, and the supernatant was collected and filtered through a 0.45 µm membrane. A Ni-Sepharose affinity column was equilibrated with 5 column volumes of a 20 mM phosphate buffer (pH 8.0). The sample was centrifuged at high speed to remove impurities and loaded onto the column for binding. The column was rinsed with the 20 mM phosphate buffer until the A280 reading dropped to the baseline. Gradient elution was then performed with the 20 mM phosphate buffer and 0-500 mM imidazole. A protein was collected, and whether it was the target protein was determined. The purified sample described above was buffer-exchanged into 1× PBS solution, and the resulting solution was concentrated to a volume of 2 mL and further purified using a Superdex200 gel chromatography column (GE) equilibrated with 1× PBS. The target peak was collected and aliquoted for later use.
PSD95-PDZ2 (the tag was removed by TEV enzyme) was diluted with 1× PBS buffer to 1 µg/mL, added to a 96-well microplate (Corning, 9018, 25/box 96-well clear flat bottom plate) at 100 µL/well, and left to stand overnight at 4 °C for 16-20 h. After the liquid was discarded, the plate was washed three times with PBST (pH 7.4, 0.05% Tween-20) buffer, and a 4% BSA blocking solution diluted with PBST buffer was then added (300 µL/well). The plate was blocked by incubation in an incubator at 37 °C for 1 h. After the blocking was complete, the blocking solution was discarded, and the plate was washed three times with PBST buffer. Biotin-NA-1, at a constant concentration of 0.3 µM, and the test compounds, having a starting concentration of 100 µM and serially diluted ten-fold with PBS buffer to seven concentrations (100, 10, 1, 0.1, 0.01, 0.001, 0.0001, and 0 µM), were then added, and the plate was incubated in an incubator at 37 °C for 1 h. After the incubation was complete, the reaction solutions in the microplate were discarded, and the plate was washed three times with PBST. 100 µL of HRP-SA secondary antibody (diluted at 1:2000) was added to each well, and the plate was incubated at 37 °C for 1 h. After the plate was washed three times with PBST, 100 µL of TMB chromogenic substrate was added. The plate was incubated at room temperature for 1-3 min, and 100 µL of 1 M sulfuric acid was added to stop the reaction.
The absorbance at 450 nm was measured using a SpectraMax M5 microplate reader, and non-linear fitting was performed using GraphPad Prism 9 to calculate the binding IC50 values of the test compounds to PSD95-PDZ2 protein.

As for `CC(C)[C@H](NC(=O)[C@H](CC(=O)O)NC(=O)[C@@H](NC(=O)[C@@H](NC(=O)[C@@H](NC(=O)COCCOCCNC(=O)[C@@H](CCCNC(=N)N)NC(=O)[C@@H](CCCNC(=N)N)NC(=O)[C@@H](CCCNC(=N)N)NC(=O)[C@@H](CCC(N)=O)NC(=O)[C@@H](CCCNC(=N)N)NC(=O)[C@@H](CCCNC(=N)N)NC(=O)[C@@H](CCCCN)NC(=O)[C@@H](CCCCN)NC(=O)[C@@H](CCCNC(=N)N)NC(=O)CNC(=O)[C@H](N)Cc1ccc(O)cc1)C(C)(C)C)C(C)(C)C)[C@@H](C)O)C(=O)O` [Polypeptide compound 15, y-G-r-k-k-r-r-q-r-r-r-AEEA-Tle-Tle-T-D-V], the EC50 on human PSD95-PDZ3 is more than 1000 µM. On human PSD95-PDZ2 [1] (PDZ2 versus PDZ3, conclusion in words), the “selectivity for the PSD95-PDZ2 domain” value is “comparable to that of the positive drugs NA-1 and NoNO42”. Moreover, on human PSD95-PDZ2 [1], the EC50 came out at 0.088 µM and the “Specificity for PDZ2 (PDZ3/PDZ2)” value is more than 10000. At human PSD95-PDZ2 [2], the half-maximal inhibitory concentration (IC50) was 2.62 µM and the rIC50 is reported as 3.00.

Take `CCCC[C@H](NC(=O)[C@@H](CCCNC(=N)N)NC(=O)[C@@H](CCCNC(=N)N)NC(=O)[C@@H](CCCNC(=N)N)NC(=O)[C@@H](CCC(N)=O)NC(=O)[C@@H](CCCNC(=N)N)NC(=O)[C@@H](CCCNC(=N)N)NC(=O)[C@@H](CCCCN)NC(=O)[C@@H](CCCCN)NC(=O)[C@@H](CCCNC(=N)N)NC(=O)CNC(=O)[C@H](N)Cc1ccc(O)cc1)C(=O)N[C@H](C(=O)N[C@H](C(=O)N[C@H](C(=O)N[C@H](C(=O)N[C@H](C(=O)N[C@@H](CC(=O)O)C(=O)N[C@H](C(=O)O)C(C)C)[C@@H](C)O)C(C)(C)C)C(C)(C)C)[C@@H](C)O)[C@@H](C)O` [Polypeptide compound 16, y-G-r-k-k-r-r-q-r-r-r-Nle-T-T-Tle-Tle-T-D-V]: the 50% effective concentration (EC50) at human PSD95-PDZ3 is more than 1000 µM; on human PSD95-PDZ2 [1], 0.081 µM. Besides, the half-maximal inhibitory concentration (IC50) at human PSD95-PDZ2 [2] worked out at 1.52 µM.

In the case of `CC[C@H](C)[C@H](NC(=O)[C@H](CCCCNC(=N)N)NC(=O)[C@H](CCCCNC(=N)N)NC(=O)[C@@H](NC(=O)[C@@H](CCCNC(=N)N)NC(=O)[C@@H](CCCNC(=N)N)NC(=O)[C@@H](CCCNC(=N)N)NC(=O)[C@@H](CCC(N)=O)NC(=O)[C@@H](CCCNC(=N)N)NC(=O)[C@@H](CCCNC(=N)N)NC(=O)[C@@H](CCCCN)NC(=O)[C@@H](CCCCN)NC(=O)[C@@H](CCCNC(=N)N)NC(=O)CNC(=O)[C@H](N)Cc1ccc(O)cc1)[C@@H](C)O)C(=O)N[C@H](C(=O)N[C@@H](CC(=O)O)C(=O)N[C@H](C(=O)O)C(C)C)[C@@H](C)O` [Polypeptide compound 17, y-G-r-k-k-r-r-q-r-r-r-T-homoArg-homoArg-I-T-D-V] (H-[dY]G[dR][dK][dK][dR][dR][dQ][dR][dR][dR]T[hArg][hArg]ITDV-OH), the EC50 on human PSD95-PDZ3 came out at 38.3 µM; on human PSD95-PDZ2 [1], 0.269 µM. For the same compound, the IC50 at human PSD95-PDZ2 [2] is 0.605 µM.

In the case of `CC(C)[C@H](NC(=O)[C@H](CC(=O)O)NC(=O)[C@@H](NC(=O)[C@@H](NC(=O)[C@@H](NC(=O)[C@H](CCCCNC(=N)N)NC(=O)[C@H](CCN)NC(=O)C(C)(C)NC(=O)CNC(=O)[C@@H](CCCNC(=N)N)NC(=O)[C@@H](CCCNC(=N)N)NC(=O)[C@@H](CCCNC(=N)N)NC(=O)[C@@H](CCC(N)=O)NC(=O)[C@@H](CCCNC(=N)N)NC(=O)[C@@H](CCCNC(=N)N)NC(=O)[C@@H](CCCCN)NC(=O)[C@@H](CCCCN)NC(=O)[C@@H](CCCNC(=N)N)NC(=O)CNC(=O)[C@H](N)Cc1ccc(O)cc1)C(C)(C)C)C(C)(C)C)[C@@H](C)O)C(=O)O` [Polypeptide compound 18, y-G-r-k-k-r-r-q-r-r-r-G-Aib-Dab-homoArg-Tle-Tle-T-D-V] (H-[dY]G[dR][dK][dK][dR][dR][dQ][dR][dR][dR]G[Aib][Dab][hArg][Tle][Tle]TDV-OH), on human PSD95-PDZ3, the EC50 was 1.19 µM. For the same compound, on human PSD95-PDZ2 [1], the EC50 was found to be 0.015 µM and the “Specificity for PDZ2 (PDZ3/PDZ2)” value is listed as 79. Also, on human PSD95-PDZ2 [2], the IC50 was found to be 0.152 µM and the rIC50 is given as 0.17.

Take `CC(C)[C@H](NC(=O)[C@H](CC(=O)O)NC(=O)[C@@H](NC(=O)[C@@H](NC(=O)[C@@H](NC(=O)[C@@H](NC(=O)CNC(=O)[C@@H](CCCNC(=N)N)NC(=O)[C@@H](CCCNC(=N)N)NC(=O)[C@@H](CCCNC(=N)N)NC(=O)[C@@H](CCC(N)=O)NC(=O)[C@@H](CCCNC(=N)N)NC(=O)[C@@H](CCCNC(=N)N)NC(=O)[C@@H](CCCCN)NC(=O)[C@@H](CCCCN)NC(=O)[C@@H](CCCNC(=N)N)NC(=O)CNC(=O)[C@H](N)Cc1ccc(O)cc1)[C@@H](C)O)C(C)(C)C)C(C)(C)C)[C@@H](C)O)C(=O)O` [Polypeptide compound 20, y-G-r-k-k-r-r-q-r-r-r-G-T-Tle-Tle-T-D-V] (H-[dY]G[dR][dK][dK][dR][dR][dQ][dR][dR][dR]GT[Tle][Tle]TDV-OH): the EC50 at human PSD95-PDZ3 was 3.23 µM. Besides, at human PSD95-PDZ2 [1], the EC50 was determined as 0.015 µM and the “Specificity for PDZ2 (PDZ3/PDZ2)” value is 215. Moreover, on human PSD95-PDZ2 [2], the half-maximal inhibitory concentration (IC50) was determined as 0.763 µM and the rIC50 was 0.84.
